Measured values as given in patent publication US6670374B1 (priority 2002, dated 2003).
“Also recorded” adds a separate entry of the source.

What was measured:
[1] = tested on: E. coli O157:H7 strain 86-24; design: species or system piglets; details: in vivo
[2] = in vivo

O[C@H]1[C@H]2[C@H](O)CCCN2C[C@H]1O [swainsonine]
progression and severity of disease / outcome at 68 h post challenge [1]: progression of disease was less rapid and for all except one, much less severe; also recorded: Two of the swainsonine-treated pigs were recovering from the disease by 68 h post challenge
lowest concentration at which a protective effect from co-incubation was observed (Vero cells): 0.012 μg/well
toxic effects in swainsonine control wells (Vero cells): No toxic effects were observed
adverse effects [2]: no adverse effects
